The values that follow come from patent US20140200215A1, “LYSOPHOSPHATIDIC ACID RECEPTOR ANTAGONISTS” (INTERMUNE, INC., priority 2013, published 2014).

Each structure is given as a SMILES string. Bounds are passed on as bounds.

Assay [1] concerns primary fibroblasts (including lung, dermal), HFL-1, 3T3 and CHO cells expressing LPA1R. Put plainly: LPA1 migration assay (Oris cell migration). It counts as cell-based. The note with it: inhibition of cell migration in response to chemoattractant (LPA, serum). The source says:
Migration of primary fibroblasts (including lung, dermal), HFL-1, 3T3 and CHO cells expressing LPA1R were monitored using the Oris™ assay (Platypus Technologies, Madison, Wis.). These cells were dye (Cell Tracker Green™) loaded and serum starved for 12-24 hrs. In response to chemoattractants such as LPA and serum, the cells migrated inward in to the exclusion (detection) zone. After fixing, fluorescent cells in the detection zone were counted using a high content reader. The ability of LPA1 antagonists to inhibit cell migration is quantified by plotting cell number vs. compound concentration and curve fitting the resulting dose-response curve to a 4 parameter logistic function.

Assay [2] addresses Human LPA1 (Homo sapiens, UniProt Q92633). Put plainly: Beta-Arrestin based assay for human LPA1R antagonists (PathHunter). It counts as cell-based. The conditions noted are these: CHO cells expressing ProLink tagged human LPA1R; antagonist mode, 0.5 micromolar LPA. How it is done: Beta-Arrestin Based Assays for Human LPA1R Antagonists and Agonists
A CHO cell line stably expressing the ProLink™ tagged human LPA1R was obtained from DiscoverX Inc, Fremont, Calif. In this system, β-Arrestin was fused to an N-terminal deletion mutant of β-galactosidase (termed the enzyme acceptor or EA), the human LPA1R was fused to a smaller (42 amino acids) weakly complementing fragment termed ProLink™. […] Cell handling and assays were performed according to protocols specified in the PathHunter® assays kits (DiscoverX, Fremont, Calif.). Assays were performed in quadruplicate in white 384 well plates. End point luminescence data were plotted and fit to a 4 parameter logistic function to obtain IC50 values. For antagonist assays, an […] concentration of agonist (LPA) equal to 0.5 micromolar was used.

Chain of Human LPA1 (Q92633 whole entry, the tested form may be a part): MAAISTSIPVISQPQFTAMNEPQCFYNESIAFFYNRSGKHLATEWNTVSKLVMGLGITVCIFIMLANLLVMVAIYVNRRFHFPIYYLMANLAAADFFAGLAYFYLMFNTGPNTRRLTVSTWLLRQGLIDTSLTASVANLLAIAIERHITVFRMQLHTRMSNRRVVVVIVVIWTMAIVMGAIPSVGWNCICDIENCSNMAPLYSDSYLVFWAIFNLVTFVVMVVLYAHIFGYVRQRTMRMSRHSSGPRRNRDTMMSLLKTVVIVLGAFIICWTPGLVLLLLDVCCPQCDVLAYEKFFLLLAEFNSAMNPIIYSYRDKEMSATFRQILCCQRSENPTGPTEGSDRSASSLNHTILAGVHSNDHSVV

As a reminder, the EC50 is the midpoint of the concentration-response curve. Higher therefore signals lower potency in that assay. For `Cc1noc(-c2ccc(-c3ccc4c(c3)CCCC4C(=O)O)cc2)c1NC(=O)O[C@H](C)c1ccccc1` (single isomer, unassigned) [IT038], the EC50 in assay [1] is over 0.5 µM.
As to `Cc1noc(-c2ccc(-c3ccc4c(c3)CCCC4C(=O)O)cc2)c1NC(=O)O[C@H](C)c1ccccc1` (single isomer, unassigned) [IT039], the EC50 in assay [1] is over 0.5 µM.
For the compound `Cc1noc(-c2ccc(-c3ccc(C4(C(=O)O)CC4)cc3)cc2)c1NC(=O)O[C@@H]1CCCc2ccccc21` (single isomer, unassigned) [IT057], the 50% effective concentration (EC50) in assay [1] and in assay [2] was over 0.5 µM in each case.
Consider `Cc1noc(-c2ccc(-c3ccc(C4(C(=O)O)CC4)cc3)cc2)c1NC(=O)O[C@H]1CCCc2ccccc21` (single isomer, unassigned) [IT058], for which the concentration for a half-maximal effect (EC50) in assay [1] and in assay [2] was over 0.5 µM each time.
In the case of `Cc1nsc(C2CCC(c3ccc(C4(C(=O)O)CC4)cc3)CC2)c1NC(=O)O[C@H](C)c1ccccc1` (single isomer, unassigned) [IT059], the results for the EC50 in assay [1] and in assay [2] were over 0.5 µM and 0.05 to 0.5 µM, respectively.
Consider `Cc1nsc(C2CCC(c3ccc(C4(C(=O)O)CC4)cc3)CC2)c1NC(=O)O[C@H](C)c1ccccc1` (single isomer, unassigned) [IT060], for which the EC50 in assay [1] and in assay [2] was over 0.5 µM in each case.
With `Cc1nsc(C#Cc2ccc3c(c2)CCC(C(=O)O)C3)c1NC(=O)O[C@H](C)c1ccccc1` (single isomer, unassigned) [IT062], the EC50 in assay [1] and in assay [2] was over 0.5 µM throughout.
With `Cc1nsc(C#Cc2ccc3c(c2)CCC(C(=O)O)C3)c1NC(=O)O[C@H](C)c1ccccc1` (single isomer, unassigned) [IT063], the EC50 in assay [1] and in assay [2] was over 0.5 µM throughout.
The compound `Cc1noc(-c2ccc(-c3ccc(C4(C(=O)O)CC4)cc3)cc2)c1NC(=O)OC(C)c1cccc2ocnc12` (single isomer, unassigned) [IT076] came in with an EC50 in assay [2] of over 0.5 µM.
`Cc1noc(-c2ccc(-c3ccc(C4(C(=O)O)CC4)cc3)cc2)c1NC(=O)OC(C)c1cccc2ocnc12` (single isomer, unassigned) [IT077]: the half-maximal effective concentration (EC50) in assay [2] was in the range of 0.05 to 0.5 µM.
As for `Cc1nsc(-c2ccc(-c3ccc(C4(C(=O)O)CC4)cc3)cc2)c1NC(=O)OC(c1ccccc1)C(F)(F)F` (single isomer, unassigned) [IT078], the EC50 in assay [1] is 0.05 to 0.5 µM; in assay [2], under 0.05 µM.
In the case of `Cc1nsc(-c2ccc(-c3ccc(C4(C(=O)O)CC4)cc3)cc2)c1NC(=O)OC(c1ccccc1)C(F)(F)F` (single isomer, unassigned) [IT079], the concentration for a half-maximal effect (EC50) in assay [1] and in assay [2] was over 0.5 µM each time.
Take `Cc1noc(C#Cc2ccc(CC3(C(=O)O)CC3)cc2)c1NC(=O)O[C@H](C)c1ccccc1` [IT001]: the concentration giving a half-maximal response (EC50) in assay [1] and in assay [2] was 0.05 to 0.5 µM throughout.
Consider `Cc1noc(C#Cc2ccc(C3(CC(=O)O)CC3)cc2)c1NC(=O)O[C@H](C)c1ccccc1` [IT002], for which the EC50 in assay [1] and in assay [2] was 0.05 to 0.5 µM in each case.
On to `Cc1noc(C#Cc2ccc(NC(=O)C3(C(=O)O)CC3)cc2)c1NC(=O)O[C@H](C)c1ccccc1` [IT005], for which the half-maximal effective concentration (EC50) in assay [1] and in assay [2] was over 0.5 µM in each case.
`Cc1noc(C#Cc2ccc(CC3(C(=O)O)CC3)cc2)c1NC(=O)O[C@H](C)c1ccccc1` [IT006] displayed a concentration for a half-maximal effect (EC50) in assay [2] of 0.05 to 0.5 µM.
On to `Cc1nsc(-c2ccc([C@H]3CC[C@@H](C(=O)O)CC3)cc2)c1NC(=O)O[C@H](C)c1ccccc1` [IT007], for which the concentration giving a half-maximal response (EC50) in assay [1] and in assay [2] was over 0.5 µM each time.
For `Cc1nsc(-c2ccc([C@H]3CC[C@H](C(=O)O)CC3)cc2)c1NC(=O)O[C@H](C)c1ccccc1` [IT008], the half-maximal effective concentration (EC50) in assay [1] and in assay [2] was over 0.5 µM each time.
Consider `Cc1noc(-c2ccc(-c3ccc4c(c3)NC(=O)CC4C(=O)O)cc2)c1NC(=O)O[C@H](C)c1ccccc1` (stereo partly drawn) [IT011], for which the results for the EC50 in assay [1] and in assay [2] were over 0.5 µM and 0.05 to 0.5 µM, respectively.
Regarding `Cc1noc(-c2ccc(-c3ccc4c(c3)CCOC4C(=O)O)cc2)c1NC(=O)O[C@H](C)c1ccccc1` (stereo partly drawn) [IT012], the EC50 in assay [1] and in assay [2] was over 0.5 µM in each case.
Take `Cc1noc(C#Cc2ccc(/C=C/C(=O)O)cc2)c1NC(=O)O[C@H](C)c1ccccc1` [IT013]: the EC50 in assay [1] and in assay [2] was over 0.5 µM in each case.
As to `C[C@@H](OC(=O)Nc1c(-c2ccc(-c3ccc(C4(C(=O)O)CC4)cc3)cc2)nc2n1CCNC2)c1ccccc1` [IT019], the concentration for a half-maximal effect (EC50) in assay [1] and in assay [2] was over 0.5 µM in each case.
As for `CCN1CCn2c(nc(-c3ccc(-c4ccc(C5(C(=O)O)CC5)cc4)cc3)c2NC(=O)O[C@H](C)c2ccccc2)C1` [IT024], the EC50 in assay [1] and in assay [2] was over 0.5 µM each time.
Take `Cc1nsc(-c2ccc(-c3cc4sc(C(=O)O)cc4s3)cc2)c1NC(=O)O[C@H](C)c1ccccc1` [IT025]: the concentration for a half-maximal effect (EC50) in assay [1] and in assay [2] was over 0.5 µM each time.
Regarding `C[C@@H](OC(=O)Nc1c(-c2ccc(C#CC3(C(=O)O)CC3)cc2)nnn1C)c1ccccc1` [IT036], the EC50 in assay [1] and in assay [2] was over 0.5 µM each time.
Turning to `Cc1noc(-c2ccc(-c3ccc4c(c3)OCCC4C(=O)O)cc2)c1NC(=O)O[C@H](C)c1ccccc1` (stereo partly drawn) [IT037], the half-maximal effective concentration (EC50) in assay [2] fell in the range of 0.05 to 0.5 µM.
On to `Cc1nsc(-c2cc(F)c(-c3ccc(C4(C(=O)O)CCOCC4)cc3)cc2F)c1NC(=O)O[C@H](C)c1ccccc1` [IT042], for which the 50% effective concentration (EC50) in assay [1] is 0.05 to 0.5 µM; in assay [2] it was under 0.05 µM.
As for `C[C@@H](OC(=O)Nc1c(-c2cc(F)c(-c3ccc(C4(C(=O)O)CCOCC4)cc3)cc2F)cnn1C)c1ccccc1` [IT044], the concentration for a half-maximal effect (EC50) in assay [1] is 0.05 to 0.5 µM; in assay [2] it was under 0.05 µM.
For `Cc1nsc(-c2cc(F)c(-c3ccc(C4(C(=O)O)CCOCC4)cc3)cc2F)c1NC(=O)OCc1ccccc1` [IT045], the EC50 in assay [1] and in assay [2] was over 0.5 µM each time.
Take `C[C@@H](OC(=O)Nc1c(-c2cc(F)c(-c3ccc(C4(C(=O)O)CC4)cc3)cc2F)nn2ccccc12)c1ccccc1` [IT049]: the 50% effective concentration (EC50) is 0.05 to 0.5 µM in assay [1] and under 0.05 µM in assay [2].
Turning to `C[C@@H](OC(=O)Nc1c(-c2ccc(-c3ccc(C4(C(=O)O)CC4)cc3)cc2)nn2ccccc12)c1ccccc1` [IT052], in assay [1], the concentration giving a half-maximal response (EC50) is over 0.5 µM.
Regarding `Cc1nsc(-c2ccc3cc(C4CCC(C(=O)O)CC4)ccc3c2)c1NC(=O)O[C@H](C)c1ccccc1` (stereo partly drawn) [IT053], the EC50 in assay [1] and in assay [2] was over 0.5 µM each time.
On to `Cc1nsc(-c2ccc3cc(C4CCC(C(=O)O)CC4)ccc3c2)c1NC(=O)O[C@H](C)c1ccccc1` (stereo partly drawn) [IT054], for which the concentration for a half-maximal effect (EC50) in assay [1] and in assay [2] was over 0.5 µM throughout.
Regarding `C[C@@H](OC(=O)Nc1c(-c2cc(F)c(-c3ccc(C4(C(=O)O)CCOCC4)cc3)cc2F)nnn1C)c1ccccc1` [IT055], the EC50 in assay [1] and in assay [2] was 0.05 to 0.5 µM each time.
For `Cc1noc(C#Cc2ccc3cc(CC4(C(=O)O)CC4)ccc3c2)c1NC(=O)O[C@H](C)c1ccccc1` [IT065], the EC50 in assay [1] was over 0.5 µM; in assay [2] it was 0.05 to 0.5 µM.
Take `Cc1nsc(-c2ccc(N3CCC(CC(=O)O)CC3)cc2)c1NC(=O)O[C@H](C)c1ccccc1` [IT068]: the 50% effective concentration (EC50) in assay [1] and in assay [2] was over 0.5 µM in each case.
For `C[C@@H](OC(=O)Nc1c(C(F)(F)F)nnn1-c1ccc(-c2ccc(C3(C(=O)O)CC3)cc2)cc1)c1ccccc1` [IT072], the EC50 in assay [1] is over 0.5 µM; in assay [2], under 0.05 µM.
The matching figures for `C[C@@H](OC(=O)Nc1c(C#Cc2cc3sc(C4(C(=O)O)CC4)cc3s2)oc2ccccc12)c1ccccc1` [IT074]: over 0.5 µM and 0.05 to 0.5 µM.
Consider `C[C@@H](OC(=O)Nc1c(-c2cc(F)c(-c3ccc(C4(C(=O)O)CC4)cc3)cc2F)oc2ccccc12)c1ccccc1` [IT075], for which the EC50 in assay [1] is 0.05 to 0.5 µM; in assay [2], under 0.05 µM.
With `Cc1nsc(-c2cc3cc4sc(C(=O)O)cc4cc3s2)c1NC(=O)O[C@H](C)c1ccccc1` [IT080], in assay [2], the EC50 was over 0.5 µM.
As for `Cc1noc(C#Cc2ccc(-c3ccc(C(=O)O)cc3)cc2)c1NC(=O)O[C@H](C)c1ccccc1` [IT081], the half-maximal effective concentration (EC50) in assay [1] and in assay [2] was over 0.5 µM throughout.
Turning to `C[C@@H](OC(=O)Nc1c(C#Cc2cc3sc(C4(C(=O)OCCN5CCOCC5)CC4)cc3s2)cnn1C)c1ccccc1` [IT082], the EC50 in assay [1] and in assay [2] was 0.05 to 0.5 µM in each case.
In the case of `C[C@@H](OC(=O)Nc1c(C#Cc2cc3sc(C4(CO)CC4)cc3s2)cnn1C)c1ccccc1` [IT083], the concentration giving a half-maximal response (EC50) in assay [1] and in assay [2] was over 0.5 µM in each case.
`COCCOC(=O)C1(c2cc3sc(C#Cc4cnn(C)c4NC(=O)O[C@H](C)c4ccccc4)cc3s2)CC1` [IT084]: the results for the concentration for a half-maximal effect (EC50) in assay [1] and in assay [2] were 0.05 to 0.5 µM and under 0.05 µM, respectively.
In assay [2], `C[C@@H](OC(=O)Nc1ncsc1C#Cc1cc2sc(C3(C(=O)O)CC3)cc2s1)c1ccccc1` [IT101] returned a half-maximal effective concentration (EC50) of over 0.5 µM.
Compound `COCC(COC(=O)C1(c2cc3sc(C#Cc4cnn(C)c4NC(=O)O[C@H](C)c4ccccc4)cc3s2)CC1)OC` (stereo partly drawn) [IT 100] yielded an EC50 in assay [2] of under 0.05 µM.
Consider `Cc1noc(C#Cc2nc3sc(C4(C(=O)O)CC4)cc3s2)c1NC(=O)O[C@H](C)c1ccccc1` [IT 102], for which the EC50 in assay [2] is under 0.05 µM.
As to `C[C@@H](OC(=O)Nc1c(C#Cc2sc3cc(C4(C(=O)O)CC4)sc3c2C(F)(F)F)cnn1C)c1ccccc1` [IT 103], the concentration giving a half-maximal response (EC50) in assay [2] is under 0.05 µM.
